Results: publication PMC10254923 (2023)

Legend:
[1] = tested on: poly rA—poly rU; prAprU (RNA, polymer) A/U; experiment: fluorimetric titration, Scatchard (McGhee-von Hippel) fit; details: Na+ (sodium cacodylate, I = 0.05 M); pH 7.0, 25 °C; n fixed 0.2; polynucleotide concentration as phosphates; per base
[2] = tested on: poly dGdC—poly dGdC; p(dGdC)2 (DNA, polymer) GC; experiment: as above; details: Na+ (sodium cacodylate, I = 0.05 M); pH 7.0, 25 °C; n fixed 0.2; polynucleotide concentration as phosphates; per base
[3] = tested on: poly dAdT—poly dAdT; p(dAdT)2 (DNA, polymer) AT; experiment: as above; details: Na+ (sodium cacodylate, I = 0.05 M); pH 7.0, 25 °C; n fixed 0.2; polynucleotide concentration as phosphates; per base
[4] = tested on: poly dAdT—poly dAdT; p(dAdT)2 (DNA, polymer) AT; experiment: UV thermal denaturation at 260 nm; details: Na+ (sodium cacodylate, I = 0.05 M); pH 7.0; r = [compound]/[polynucleotide] = 0.1; error ±0.5 °C; per base
[5] = tested on: poly rA—poly rU; prAprU (RNA, polymer) A/U; experiment: UV thermal denaturation at 260 nm; details: Na+ (sodium cacodylate, I = 0.05 M); pH 7.0; r = [compound]/[polynucleotide] = 0.1; error ±0.5 °C; per base
[6] = tested on: poly dGdC—poly dGdC; p(dGdC)2 (DNA, polymer) GC; experiment: UV/vis titration, Scatchard (McGhee-von Hippel) fit; details: Na+ (sodium cacodylate, I = 0.05 M); pH 7.0, 25 °C; n fixed 0.2; polynucleotide concentration as phosphates; per base
[7] = tested on: poly dAdT—poly dAdT; p(dAdT)2 (DNA, polymer) AT; experiment: as above; details: Na+ (sodium cacodylate, I = 0.05 M); pH 7.0, 25 °C; n fixed 0.2; polynucleotide concentration as phosphates; per base
[8] = tested on: poly rA—poly rU; prAprU (RNA, polymer) A/U; experiment: as above; details: Na+ (sodium cacodylate, I = 0.05 M); pH 7.0, 25 °C; n fixed 0.2; polynucleotide concentration as phosphates; per base

| SMILES | logKs [1] | logKs [2] | logKs [3] | ΔTm [4] [°C] | ΔTm [5] [°C] | logKs [6] | logKs [7] | logKs [8] |
| --- | --- | --- | --- | --- | --- | --- | --- | --- |
| Cc1cc(-c2cc3ccc4cc(-c5cc(C)c(B(c6c(C)cc([N+](C)(C)C)cc6C)c6c(C)cc([N+](C)(C)C)cc6C)c(C)c5)cc5ccc(c2)c3c45)cc(C)c1B(c1c(C)cc([N+](C)(C)C)cc1C)c1c(C)cc([N+](C)(C)C)cc1C | 7.4 | 8.0 | 8.7 | 9.6 | 7.4 | – | – | – |
| Cc1cc(-c2ccc(-c3ccc(-c4cc(C)c(B(c5c(C)cc([N+](C)(C)C)cc5C)c5c(C)cc([N+](C)(C)C)cc5C)c(C)c4)cc3)cc2)cc(C)c1B(c1c(C)cc([N+](C)(C)C)cc1C)c1c(C)cc([N+](C)(C)C)cc1C | – | – | – | 6.7 | 12.1 | 6.0 | 6.1 | 7.5 |
| Cc1cc(-c2ccc3c(c2)Cc2cc(-c4cc(C)c(B(c5c(C)cc([N+](C)(C)C)cc5C)c5c(C)cc([N+](C)(C)C)cc5C)c(C)c4)ccc2-3)cc(C)c1B(c1c(C)cc([N+](C)(C)C)cc1C)c1c(C)cc([N+](C)(C)C)cc1C | 7.9 | 7.4 | 6.9 | 8.2 | 9.3 | – | – | – |
